Target: T1, h5-HT4b (Homo sapiens, UniProt Q13639)
T1 construct: expressed in transfected cells; host or cells: HEK 293 (clone 9), membrane preparation
Test: 5HT4 antagonism: [3H]GR113808 binding to membranes of h5-HT4b-HEK 293 clone 9 cells
Conditions: displacement of [3H]GR113808 0.1 nM, h5-HT4b-HEK 293 membranes, 30 min at 25° C.; read-out: pIC50 (5HT4 antagonistic data) (converted)
Outline: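 Membranes from h5-HT4b-HEK 293 clone 9 cells were incubated with [3H]GR113808 (0.1 nM as added) in 50 mM HEPES-NaOH pH 7.4 for 30 min at 25 °C. Non-specific binding was defined with a 5-HT4 agonist. Bound radioligand was separated by filtration over PEI-soaked GF/B filters.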

T1 sequence (Q13639 whole entry): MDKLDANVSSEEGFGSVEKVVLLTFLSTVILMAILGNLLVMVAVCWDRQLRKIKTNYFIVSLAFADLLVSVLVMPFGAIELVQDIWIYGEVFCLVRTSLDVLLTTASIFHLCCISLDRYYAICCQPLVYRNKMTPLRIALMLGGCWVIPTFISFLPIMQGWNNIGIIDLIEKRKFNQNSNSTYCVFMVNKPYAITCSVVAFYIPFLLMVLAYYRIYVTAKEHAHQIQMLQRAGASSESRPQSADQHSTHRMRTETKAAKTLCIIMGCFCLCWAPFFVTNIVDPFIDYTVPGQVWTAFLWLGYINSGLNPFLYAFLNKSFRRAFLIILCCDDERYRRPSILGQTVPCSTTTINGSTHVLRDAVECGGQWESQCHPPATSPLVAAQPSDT

| Structure (SMILES) | IC50 |
| --- | --- |
| COCCCN1CC[C@@H](CNC(=O)c2cc(C)cc3c2OCCCO3)[C@H](O)C1 (single isomer, unassigned) [compound 162] | 3.09 nM |
| COCCCN1CC[C@@H](CNC(=O)c2cc(OC)cc3c2OCCCO3)[C@H](O)C1 [compound 87] | 12.9 nM |
| COCc1cc2c(c(C(=O)NC[C@@H]3CCN(CC4CCCO4)C[C@H]3O)c1)OCCCO2 (stereo partly drawn) [compound 125] | 16.2 nM |
| CO[C@@H]1CN(CCCC#N)CC[C@H]1CNC(=O)c1cc(C#N)cc2c1OCCCO2 [compound 208] | 5.62 nM |
| CCCCN1CC[C@@H](CNC(=O)c2cc(C#N)cc3c2OCCCO3)[C@H](OC)C1 [compound 209] | 17.8 nM |
| CO[C@@H]1CN(CCCO)CC[C@H]1CNC(=O)c1cc(C)cc2c1OCCCO2 [compound 210] | 5.25 nM |
| Cc1cc2c(c(C(=O)NC[C@@H]3CCN(CCCOC(C)C)C[C@H]3O)c1)OCCCO2 [compound 212] | 0.813 nM |
| Cc1cc2c(c(C(=O)NC[C@@H]3CCN(CCCCCC(N)=O)C[C@H]3O)c1)OCCCO2 [compound 213] | 2.63 nM |
| Cc1cc2c(c(C(=O)NC[C@@H]3CCN(CCC(N)=O)C[C@H]3O)c1)OCCCO2 [compound 214] | 2.34 nM |
| CO[C@@H]1CN(CCCC#N)CC[C@H]1CNC(=O)c1cc(C)cc2c1OCCCO2 [compound 215] | 5.01 nM |
| CNCCCCN1CC[C@@H](CNC(=O)c2cc(CC#N)cc3c2OCCCO3)[C@H](O)C1 [compound 216] | 44.7 nM |
| Cc1cc2c(c(C(=O)NC[C@@H]3CCN(CCCCC(N)=O)C[C@H]3O)c1)OCCCO2 [compound 217] | 1.48 nM |
| Cc1cc2c(c(C(=O)NC[C@@H]3CCN(CC4CC4)C[C@H]3O)c1)OCCCO2 [compound 218] | 0.776 nM |
| CC(C)OCCCN1CC[C@H](CNC(=O)c2cc(C#N)cc3c2OCCCO3)[C@@H](O)C1 [compound 219] | 1.86 nM |
| CC1(CCCN2CC[C@H](CNC(=O)c3cc(C#N)cc4c3OCCCO4)[C@@H](O)C2)OCCO1 [compound 220] | 2.51 nM |
| CO[C@@H]1CN(CCCNS(C)(=O)=O)CC[C@H]1CNC(=O)c1cc(C)cc2c1OCCCO2 [compound 221] | 3.09 nM |
| CCCCN1CC[C@@H](CNC(=O)c2cc(C)cc3c2OCCCO3)[C@H](OC)C1 [compound 222] | 1.32 nM |
| CC(=O)CCCN1CC[C@@H](CNC(=O)c2cc(C#N)cc3c2OCCCO3)[C@H](O)C1 [compound 223] | 3.72 nM |
| Cc1cc2c(c(C(=O)NC[C@@H]3CCN(CCCC(=O)N4CCCC4)C[C@H]3O)c1)OCCCO2 [compound 224] | 1.78 nM |
| Cc1cc2c(c(C(=O)NC[C@@H]3CCN(CCCCNc4ncccn4)C[C@H]3O)c1)OCCCO2 [compound 230] | 0.501 nM |

| Structure (SMILES) | IC50 |
| --- | --- |
| Cc1cc2c(c(C(=O)NC[C@@H]3CCN(CCCCNc4nccnc4C)C[C@H]3O)c1)OCCCO2 [compound 231] | 0.776 nM |
| Cc1cc2c(c(C(=O)NC[C@@H]3CCN(CCCc4ccncc4)C[C@H]3O)c1)OCCCO2 [compound 232] | 0.398 nM |
| Cc1cc2c(c(C(=O)NC[C@@H]3CCN(CCCc4ccc(O)cc4)C[C@H]3O)c1)OCCCO2 [compound 233] | 0.355 nM |
| COCCCCN1CC[C@@H](CNC(=O)c2cc(C)cc3c2OCCCO3)[C@H](O)C1 [compound 234] | 0.49 nM |
| COCCCN1CC[C@@H](CNC(=O)c2cc(C#N)cc3c2OCCCO3)[C@H](OC)C1 [compound 235] | 37.2 nM |
| CO[C@@H]1CN(CCCNS(C)(=O)=O)CC[C@H]1CNC(=O)c1cc(C#N)cc2c1OCCCO2 [compound 236] | 47.9 nM |
| Cc1cc2c(c(C(=O)NC[C@@H]3CCN(CCCS(C)(=O)=O)C[C@H]3O)c1)OCCO2 [compound 237] | 1.45 nM |
| COCCCCN1CCC(O)(CNC(=O)c2cc(C)cc3c2OCCCO3)CC1 [compound 239] | 19.1 nM |
| Cc1cc2c(c(C(=O)NCC3(O)CCN(CCCC#N)CC3)c1)OCCCO2 [compound 240] | 45.7 nM |
| Cc1cc2c(c(C(=O)NC[C@H]3CCN(CCCC#N)C[C@H]3O)c1)OCCCO2 [compound 241] | 19.5 nM |
| CCCCN1CC[C@H](CNC(=O)c2cc(C)cc3c2OCCCO3)[C@H](O)C1 [compound 242] | 0.794 nM |
| COCCCCN1CC[C@H](CNC(=O)c2cc(C)cc3c2OCCCO3)[C@H](O)C1 [compound 243] | 9.33 nM |
| CCCCN1CCC(O)(CNC(=O)c2cc(C)cc3c2OCCCO3)CC1 [compound 245] | 2.14 nM |
| COCCCCN1CC[C@@H](CNC(=O)c2cc(C)cc3c2OCCO3)[C@H](O)C1 [compound 248] | 0.224 nM |
| Cc1cc2c(c(C(=O)NC[C@H]3CCN(CCCC(N)=O)C[C@H]3O)c1)OCCCO2 [compound 249] | 37.2 nM |
| Cc1cc2c(c(C(=O)NC[C@@H]3CCN(CCCOC(=O)N4CCCC4)C[C@H]3O)c1)OCCCO2 [compound 250] | 0.759 nM |
| COCCCN1CC[C@H](CNC(=O)c2cc(C)cc3c2OCCCO3)[C@@H](O)C1 [compound 251] | 30.9 nM |
| N#Cc1cc2c(c(C(=O)NC[C@@H]3CCN(CCCC(N)=O)C[C@H]3O)c1)OCCCO2 [compound 252] | 4.27 nM |
| Cc1cc2c(c(C(=O)NCC3(O)CCN(CCCC(N)=O)CC3)c1)OCCCO2 [compound 253] | 31.6 nM |

System: not listed separately
Test: Metabolic stability: % metabolism after 60 minutes incubation with active liver microsomes
Assay type: in vitro ADME
Conditions: compound 5 μM, microsomes 1 mg/ml, NADPH-generating system, 60 minutes at 37 degrees Celsius
Protocol: Sub-cellular tissue preparations were made according to Gorrod et al. (Xenobiotica 5:453-462, 1975) by centrifugal separation after mechanical homogenization of tissue. Liver tissue was rinsed in ice-cold 0.1 M Tris-HCl (pH 7.4) buffer to wash excess blood. Tissue was then blotted dry, weighed and chopped coarsely using surgical scissors. The tissue pieces were homogenized in 3 volumes of ice-cold 0.1 M phosphate buffer (pH 7.4).
Tissue homogenates were centrifuged at 9000×g for 20 minutes at 4° C. The resulting supernatant was stored at −80° C. and is designated ‘S9’.
The S9 fraction can be further centrifuged at 100.000×g for 60 minutes (4° C.). The resulting supernatant was carefully aspirated, aliquoted and designated ‘cytosol’. The pellet was re-suspended in 0.1 M phosphate buffer (pH 7.4) in a final volume of 1 ml per 0.5 g original tissue weight and designated ‘microsomes’.
All sub-cellular fractions were aliquoted, immediately frozen in liquid nitrogen and stored at −80° C. until use.
For the samples to be tested, the incubation mixture contained PBS (0.1M), compound (5 μM), microsomes (1 mg/ml) and a NADPH-generating system (0.8 mM glucose-6-phosphate, 0.8 mM magnesium chloride and 0.8 Units of glucose-6-phosphate dehydrogenase). Control samples contained the same material but the microsomes were replaced by heat inactivated (10 minutes at 95 degrees Celsius) microsomes. Recovery of the compounds in the control samples was always 100%.
The mixtures were preincubated for 5 minutes at 37 degrees Celsius. The reaction was started at time point zero (t=0) by addition of 0.8 mM NADP and the samples were incubated for 60 minutes (t=60). The reaction was terminated by the addition of 2 volumes of DMSO. Then the samples were centrifuged for 10 minutes at 900×g and the supernatants were stored at room temperature for no longer as 24 hours before analysis. All incubations were performed in duplo. Analysis of the supernatants was performed with LC-MS analysis. Elution of the samples was performed on a Xterra MS C18 (50×4.6 mm, 5 μm, Waters, US). An Alliance 2790 (Supplier: Waters, US) HPLC system was used. Elution was with buffer A (25 mM ammoniumacetate (pH 5.2) in H2O/acetonitrile (95/5)), solvent B being acetonitrile and solvent C methanol at a flow rate of 2.4 ml/min. The gradient employed was increasing the organic phase concentration from 0% over 50% B and 50% C in 5 min up to 100% B in 1 minute in a linear fashion and organic phase concentration was kept stationary for an additional 1.5 minutes. Total injection volume of the samples was 25 μl.
A Quatro triple quadrupole mass spectrometer fitted with and ESP source was used as detector. The source and the desolvation temperature were set at 120 and 350° C. respectively and nitrogen was used as nebuliser and drying gas. Data were acquired in positive scan mode (single ion reaction). Cone voltage was set at 10 V and the dwell time was 1 second.
Metabolic stability was expressed as % metabolism of the compound after 60 minutes (equation given as example) of incubation in the presence of active microsomes (E(act))

| Structure (SMILES) | % metabolised compound (compounds of present invention) |
| --- | --- |
| COCCCN1CC[C@@H](CNC(=O)c2cc(C)cc3c2OCCCO3)[C@H](O)C1 (single isomer, unassigned) [compound 162] | 9% |
| COCCCN1CC[C@@H](CNC(=O)c2cc(OC)cc3c2OCCCO3)[C@H](O)C1 [compound 87] | 4% |
| COCc1cc2c(c(C(=O)NC[C@@H]3CCN(CC4CCCO4)C[C@H]3O)c1)OCCCO2 (stereo partly drawn) [compound 125] | 6% |

Same assay, conditions: compound 5 μM, microsomes 1 mg/ml, NADPH-generating system, 60 minutes at 37 degrees Celsius; compound numbers of WO-00/37461

| Structure (SMILES) | % metabolised compound (comparative structures of WO-00/37461) |
| --- | --- |
| COCCCN1CC[C@@H](CNC(=O)c2cc(Cl)cc3c2OCCO3)[C@H](O)C1 [WO-00/37461 Co. No. 67, reference compound] | 30% |
| O=C(NC[C@@H]1CCN(CCCCO)C[C@H]1O)c1cc(Cl)cc2c1OCCO2 [WO-00/37461 Co. No. 68, reference compound] | 10% |
| N#CCCCN1CC[C@@H](CNC(=O)c2cc(Cl)cc3c2OCCO3)[C@H](O)C1 [WO-00/37461 Co. No. 74, reference compound] | 50.5% |
| CCCCN1CC[C@@H](CNC(=O)c2cc(Cl)cc3c2OCCCO3)[C@H](O)C1 [WO-00/37461 Co. No. 119, reference compound] | 68% |
| COCCCN1CC[C@@H](CNC(=O)c2cc(Cl)cc3c2OCCCO3)[C@H](O)C1 [WO-00/37461 Co. No. 120, reference compound] | 25% |
| CC(=O)CCCN1CC[C@@H](CNC(=O)c2cc(Cl)cc3c2OCCCO3)[C@H](O)C1 [WO-00/37461 Co. No. 121, reference compound] | 30% |
| O=C(NC[C@@H]1CCN(CC2CCCO2)C[C@H]1O)c1cc(Cl)cc2c1OCCCO2 (stereo partly drawn) [WO-00/37461 Co. No. 122, reference compound] | 79% |
| CC1(CCCN2CC[C@@H](CNC(=O)c3cc(Cl)cc4c3OCCCO4)[C@H](O)C2)OCCO1 [WO-00/37461 Co. No. 124, reference compound] | 49.5% |
| O=C(NC[C@@H]1CCN(CCOCCO)C[C@H]1O)c1cc(Cl)cc2c1OCCCO2 [WO-00/37461 Co. No. 128, reference compound] | 26% |
| O=C(NC[C@@H]1CCN(CCC2OCCO2)C[C@H]1O)c1cc(Cl)cc2c1OCCCO2 [WO-00/37461 Co. No. 143, reference compound] | 63% |
| O=C(NC[C@@H]1CCN(CCCO)C[C@H]1O)c1cc(Cl)cc2c1OCCCO2 [WO-00/37461 Co. No. 144, reference compound] | 11% |
| O=C(NC[C@@H]1CCN(CCCCO)C[C@H]1O)c1cc(Cl)cc2c1OCCCO2 [WO-00/37461 Co. No. 160, reference compound] | 23% |

From US7638535B2, “4-(aminomethyl)-piperidine benzamides as 5HT4-antagonists” (Janssen Pharmaceutica N.V., priority 2003, dated 2009)
